In brackets after ≈: the same amount, converted by molar mass. Like-named read-outs stand apart in the source and are kept apart here.
How the values were obtained:
[1] = system: human leukemia HL-60 cell line; conditions: cited from earlier work
[2] = system: Enterobacter cloacae; test: Antimicrobial broth microdilution, MIC; type: cell-based; conditions: for MIC: read-out: Minimum inhibitory concentration
Description: (§1) Stilbene production has been correlated with the resistance of grape leaves to fungal infection.

[3] = system: Neisseria gonorrhoeae; test: Antimicrobial broth microdilution, MIC; type: cell-based
Description: as §1

[4] = system: Micrococcus luteus; test: Antimicrobial broth microdilution, MIC; type: cell-based; conditions: for MIC: read-out: Minimum inhibitory concentration
Description: as §1

[5] = system: Streptococcus pneumoniae; test: Antimicrobial broth microdilution, MIC; type: cell-based; conditions: for MIC: read-out: Minimum inhibitory concentration
Description: as §1

[6] = system: Enterococcus faecalis; test: Antimicrobial broth microdilution, MIC; type: cell-based; conditions: for MIC: read-out: Minimum inhibitory concentration
Description: as §1

[7] = system: Staphylococcus aureus; test: Antimicrobial broth microdilution, MIC; type: cell-based; conditions: for MIC: read-out: Minimum inhibitory concentration
Description: as §1

[8] = system: Escherichla coli; test: Antimicrobial broth microdilution, MIC; type: cell-based; conditions: for MIC: read-out: Minimum inhibitory concentration
Description: as §1

[9] = system: Cryptococcus neoformans; test: Antimicrobial broth microdilution, MIC; type: cell-based; conditions: for MIC: read-out: Minimum inhibitory concentration
Description: as §1

[10] = system: Stenotrophomonas maltophilia; test: Antimicrobial broth microdilution, MIC; type: cell-based; conditions: for MIC: read-out: Minimum inhibitory concentration
Description: as §1

[11] = system: Candida albicans; test: Antimicrobial broth microdilution, MIC; type: cell-based; conditions: for MIC: read-out: Minimum inhibitory concentration
Description: as §1

[12] = system: MCF-7; test: Cytotoxicity, breast MCF-7; type: cell-based, human; conditions: for GI50: Homo sapiens, MCF7
[13] = system: NCI-H460; test: Cytotoxicity, lung-NSC NCI-H460; type: cell-based, human; conditions: for GI50: Homo sapiens
[14] = system: SF-268; test: Cytotoxicity, CNS SF-268; type: cell-based, human; conditions: for GI50: Homo sapiens
[15] = system: KM201.2; test: Cytotoxicity, colon KM201.2; type: cell-based, human; conditions: for GI50: Homo sapiens
[16] = system: DU-145; test: Cytotoxicity, prostate DU-145; type: cell-based, human; conditions: for GI50: Homo sapiens, DU-145, DU-145
[17] = system: BXPC-3; test: Cytotoxicity, pancreas-a BXPC-3; type: cell-based, human; conditions: for GI50: Homo sapiens, BXPC-3, BXPC-3
[18] = system: tubulin; test: Inhibition of [3H]colchicine binding to tubulin; conditions: for Inhibition of colchicine binding % Inhibition, 2 μM inhibitor / Inhibition of colchicine binding % Inhibition, 5 μM inhibitor: tubulin 1.0 μM, [3H]colchicine 5.0 μM, 10 min at 37° C.
Experimental: (§2) Extent of assembly after 20 min at 30° C. was the parameter measured. The colchicine binding assay was performed as earlier reported.^27 The tubulin concentration was 1.0 μM, the [3H] colchicine concentration was 5.0 μM, and the potential inhibitor concentrations were as indicated. Binding of colchicine was measured following a 10 min incubation at 37° C.

[19] = system: tubulin; test: Inhibition of tubulin polymerization; type: biochemical; conditions: for IC50: tubulin 10 μM, extent of assembly after 20 min at 30° C., read-out: Inhibition of tubulin Polymerization IC50 (μM) ± SD; for Inhibition of tubulin assembly, in words: direct comparison with 2a and 2c
Experimental: as §2

[20] = system: murine CaNT adenocarcinoma; conditions: six hours after single i.p. injection, 100 mg/kg; cited from earlier work
[21] = system: P-388 and human tumor cell lines; test: Cytotoxicity, summary over P-388 and human tumor cell lines; type: cell-based
[22] = Neisseria gonorrhoeae; read-out: Minimum inhibitory concentration
[23] = NCI-H460, NCI-H460, read-out: Lung-NSC NCI-H460 GI50
[24] = SF-268, SF-268, read-out: CNS SF-268 GI50
[25] = KM201.2, read-out: Colon KM201.2 GI50
[26] = NCI-H460, read-out: Lung-NSC NCI-H460 GI50, NCI-H460

Compound	MIC [2]	MIC [3, 22]	MIC [4]	MIC [5]	MIC ([6]; first line (r12))	MIC ([6]; second line (r15))	MIC [7]	MIC ([8]; Escherichla coli)	MIC [9]	MIC [10]	MIC [11]	GI50 [12]	GI50 [13, 23]	GI50 [14, 24]	GI50 [15, 25]	GI50 [16]	GI50 [17]	Inhibition of colchicine binding % Inhibition, 2 μM inhibitor [18]	CNS SF-268 GI50 [14]	Prostate DU-145 GI50 [16]	further results
Oc1ccc(/C=C/c2cc(O)cc(O)c2)cc1 [Compound 1, 3,4′,5-trihydroxy-trans-stilbene, reference compound]	> 64 µg/mL	16 to 32 µg/mL (≈ 70.1 to 140 µM)	> 64 µg/mL	> 64 µg/mL	> 64 µg/mL	> 64 µg/mL	> 64 µg/mL	> 64 µg/mL	> 64 µg/mL	> 64 µg/mL	> 64 µg/mL										Apoptosis and Bcl-2 expression [1]: induce apoptosis and decrease expression of Bcl-2; Activity against Neisseria gonorrhoeae, in words ([3]; broth microdilution assays): demonstrated
COc1ccc(/C=C\c2cc(OC)c(OC)c(OC)c2)cc1O [Compound 2a, combretastatin A-4, reference compound]																		91%	>0.01 µg/mL	0.0008 µg/mL	Lung-NSC NCI-H460 GI50 [13]: 0.0006 µg/mL; Colon KM201.2 GI50 ([15]; KM201.2): 0.34 µg/mL; Pancreas-a BXPC-3 GI50 [17]: 0.39 µg/mL; IC50 [19]: 2 ± 0.2 µM
COc1ccc(C=Cc2cc(OC)cc(OC)c2)cc1 [Compound 4a, 3,4′,5-trimethoxystilbene]	> 64 µg/mL		> 64 µg/mL	> 64 µg/mL			> 64 µg/mL		> 64 µg/mL	> 64 µg/mL	> 64 µg/mL							88 ± 1%	0.0044 µg/mL	0.0054 µg/mL	Inhibition of colchicine binding, in words [18]: essentially equivalent to 2a; Inhibition of colchicine binding % Inhibition, 5 μM inhibitor [18]: 95 ± 1%; Lung-NSC NCI-H460 GI50 [13]: 0.0028 µg/mL; MIC ([3]; Neisseria gonorrhoeae, read-out: Minimum inhibitory concentration): > 64 µg/mL; MIC [6]: > 64 µg/mL; Minimum inhibitory concentration ([6]; second line (r15)): * (no inhibition at 64 μg/ml); MIC [8]: > 64 µg/mL; Pancreas-a BXPC-3 GI50 [17]: 0.0034 µg/mL; Inhibition of tubulin assembly, in words [19]: more inhibitory than 2a; IC50 [19]: 1.8 ± 0.3 µM
COc1ccc(/C=C\c2cc(OC)c(OC)c(OC)c2)cc1OP(=O)([O-])[O-].[Na+].[Na+] [Compound 2b, combretastatin A-4 sodium phosphate prodrug]																					Tumor vascular function shutdown [20]: rapid, irreversible and extensive
COc1ccc(C(=O)c2cc(OC)c(OC)c(OC)c2)cc1O [Compound 2c, phenstatin, reference compound]																		73 ± 1%			Inhibition of colchicine binding, in words [18]: less potent than combretastatin A-4 (2a); Inhibition of colchicine binding % Inhibition, 5 μM inhibitor [18]: 85 ± 2%; GI50 [13, 26]: 0.0057 µg/mL (≈ 0.0179 µM); GI50 ([14]; SF-268, read-out: CNS SF-268 GI50, SF-268): 0.052 µg/mL (≈ 0.163 µM); GI50 ([15]; read-out: Colon KM201.2 GI50, KM201.2): 0.04 µg/mL (≈ 0.126 µM); IC50 [19]: 1.1 ± 0.1 µM
COc1cc(OC)cc(C(=O)c2ccc(O)cc2)c1 [Compound 16c]																			3.8 µg/mL	4.1 µg/mL	Breast MCF-7 GI50 [12]: 2.2 µg/mL; Lung-NSC NCI-H460 GI50 [13]: 3.0 µg/mL; Colon KM201.2 GI50 ([15]; KM201.2): 3.6 µg/mL; Minimum inhibitory concentration [2]: * (no inhibition at 64 μg/ml); Minimum inhibitory concentration ([3]; Neisseria gonorrhoeae): 32 to 64 µg/mL; Minimum inhibitory concentration [4]: * (no inhibition at 64 μg/ml); Minimum inhibitory concentration [5]: 64 µg/mL (≈ 248 µM); Minimum inhibitory concentration ([6]; first line (r12)): * (no inhibition at 64 μg/ml); Minimum inhibitory concentration ([6]; second line (r15)): * (no inhibition at 64 μg/ml); Minimum inhibitory concentration [7]: * (no inhibition at 64 μg/ml); Minimum inhibitory concentration ([8]; Escherichla coli): * (no inhibition at 64 μg/ml); Minimum inhibitory concentration [9]: * (no inhibition at 64 μg/ml); Minimum inhibitory concentration [10]: * (no inhibition at 64 μg/ml); Minimum inhibitory concentration [11]: * (no inhibition at 64 μg/ml); Pancreas-a BXPC-3 GI50 [17]: 4.0 µg/mL
COc1ccc(C=Cc2cc(O)cc(O)c2)cc1 [Compound 14k, 3,5-dihydroxy-4′-methoxy-stilbene]	> 64 µg/mL	16 µg/mL (≈ 66 µM)	> 64 µg/mL	> 64 µg/mL	> 64 µg/mL	> 64 µg/mL	> 64 µg/mL	> 64 µg/mL	> 64 µg/mL	> 64 µg/mL	> 64 µg/mL								15.6 µg/mL	10.6 µg/mL	Breast MCF-7 GI50 [12]: 12.7 µg/mL; Cytotoxicity against cancer cell lines, comparison in words [21]: comparable to that of resveratrol; GI50 [13, 26]: 6.4 µg/mL (≈ 26.4 µM); Colon KM201.2 GI50 ([15]; KM201.2): 17.7 µg/mL; Pancreas-a BXPC-3 GI50 [17]: 14.1 µg/mL

Continued, in another order:

MIC [2]	MIC [3, 22]	MIC [4]	MIC [5]	MIC ([6]; first line (r12))	MIC ([6]; second line (r15))	MIC [7]	MIC ([8]; Escherichla coli)	MIC [9]	MIC [10]	MIC [11]	Compound	GI50 [12]	GI50 [13, 23]	GI50 [14, 24]	GI50 [15, 25]	GI50 [16]	GI50 [17]	Inhibition of colchicine binding % Inhibition, 2 μM inhibitor [18]	CNS SF-268 GI50 [14]	Prostate DU-145 GI50 [16]	further results
> 64 µg/mL	32 µg/mL (≈ 131 µM)	> 64 µg/mL	64 µg/mL (≈ 262 µM)	> 64 µg/mL	> 64 µg/mL	> 64 µg/mL	> 64 µg/mL	> 64 µg/mL	> 64 µg/mL	> 64 µg/mL	COc1cc(O)cc(C(=O)c2ccc(O)cc2)c1 [Compound 16i, 3,4′-dihydroxy-5-methoxybenzophenone]	26.8 µg/mL (≈ 110 µM)	12.1 µg/mL (≈ 49.5 µM)	26.4 µg/mL (≈ 108 µM)	31.6 µg/mL (≈ 129 µM)	16.5 µg/mL (≈ 67.6 µM)	21.7 µg/mL (≈ 88.8 µM)				
> 64 µg/mL	2 to 4 µg/mL (≈ 7.68 to 15.4 µM)	> 64 µg/mL	16 µg/mL (≈ 61.5 µM)	> 64 µg/mL	> 64 µg/mL	> 64 µg/mL	> 64 µg/mL	> 64 µg/mL	> 64 µg/mL	> 64 µg/mL	COc1cc(OC)cc(C(O)c2ccc(O)cc2)c1 (stereo not drawn) [Compound 15c, 4′-Hydroxy-3,5-dimethoxybenzhydrol]	2 µg/mL (≈ 7.68 µM)	2.3 µg/mL (≈ 8.84 µM)	0.65 µg/mL (≈ 2.5 µM)	5.3 µg/mL (≈ 20.4 µM)	5.8 µg/mL (≈ 22.3 µM)	1.3 µg/mL (≈ 4.99 µM)				
> 64 µg/mL	> 64 µg/mL	> 64 µg/mL	64 µg/mL (≈ 278 µM)	> 64 µg/mL	> 64 µg/mL	> 64 µg/mL	> 64 µg/mL	> 64 µg/mL	> 64 µg/mL	> 64 µg/mL	O=C(c1ccc(O)cc1)c1cc(O)cc(O)c1 [Compound 16g, 3,4′,5-trihydroxybenzophenone]	30.6 µg/mL (≈ 133 µM)	25 µg/mL (≈ 109 µM)	22.3 µg/mL (≈ 96.9 µM)	24.5 µg/mL (≈ 106 µM)	15 µg/mL (≈ 65.2 µM)	20.5 µg/mL (≈ 89 µM)				
> 64 µg/mL	16 to 32 µg/mL (≈ 61.9 to 124 µM)	> 64 µg/mL	32 to 64 µg/mL (≈ 124 to 248 µM)	> 64 µg/mL	> 64 µg/mL	> 64 µg/mL	> 64 µg/mL	64 µg/mL (≈ 248 µM)	> 64 µg/mL	> 64 µg/mL	COc1ccc(C(=O)c2cc(O)cc(OC)c2)cc1 [Compound 16k, 4′,5-dimethoxy-3-hydroxybenzophenone]	14.2 µg/mL (≈ 55 µM)	10.3 µg/mL (≈ 39.9 µM)	13.9 µg/mL (≈ 53.8 µM)	16.2 µg/mL (≈ 62.7 µM)	12.6 µg/mL (≈ 48.8 µM)	15 µg/mL (≈ 58.1 µM)				
> 64 µg/mL	32 µg/mL (≈ 118 µM)	> 64 µg/mL	> 64 µg/mL	> 64 µg/mL	> 64 µg/mL	> 64 µg/mL	> 64 µg/mL	> 64 µg/mL	> 64 µg/mL	> 64 µg/mL	COc1ccc(C(=O)c2cc(OC)cc(OC)c2)cc1 [Compound 16a, 3,4′,5-trimethoxybenzophenone]	21.7 µg/mL (≈ 79.7 µM)						47 ± 5%			melting point: 90.3 to 91.6 °C; Inhibition of colchicine binding, in words [18]: least activity in both assays; Inhibition of colchicine binding % Inhibition, 5 μM inhibitor [18]: 69 ± 0.3%; Cytotoxicity against cancer cell lines, comparison in words [21]: superior in activity to resveratrol (1); Fold less active (cytotoxicity) than compound 4a ([21]; relative to 4a): 10-100 fold; Inhibition of tubulin assembly, in words [19]: somewhat less potent than 2c; IC50 [19]: 2.6 ± 0.3 µM

Source: patent US7705188B2 (Arizona Board of Regents, a body corporate of the State of …, priority 2002, dated 2010)
